The source of these data is patent US4581356A, “Triazine derivatives, and pharmaceutical compositions comprising the same” (Fujisawa Pharmaceutical Co., Ltd., priority 1983, dated 1986).

Assay [1] deals with platelet aggregation (collagen as inducer). Kind of assay: Inhibition of collagen-induced platelet aggregation in platelet rich plasma. The note with it: Oryctolagus cuniculus, rabbit PRP, 37° C., collagen 2.5 μg/ml, read-out: ID50 Collagen. In kind it is cell-based. On the procedure:
(§1) Platelet rich plasma (PRP) which contains 6.5-7.5×10^8 platelet/ml was prepared from rabbit blood. To the 200 μl of PRP, 5 μl of calcium chloride (1 mM) and 50 μl of pH 7.4 Tris-acetate solution (5 mM) containing 120 mM NaCl and test compound were added successively, and then stirred for 2 min. at 37° C. To the solution, 5 μl of adenosine diphosphate (ADP) (2.5 μM) or collagen (2.5 μg/ml) was added as an aggregation inducer. Aggregation was measured by using an aggregometer (NKK HEMA TRACER 1).

Assay [2] has as its system platelet aggregation (ADP as inducer). Briefly: Inhibition of ADP-induced platelet aggregation in platelet rich plasma. Format: cell-based. The note with it: Oryctolagus cuniculus, rabbit PRP, 37° C., ADP 2.5 μM, read-out: ID50 ADP. The protocol: as §1
For another assay, the system named is blood pressure. Briefly: Antihypertensive activity in uninephrectomized DOCA/saline hypertensive rats (mean arterial pressure). In kind it is in vivo, male Wister rats. Conditions: orally, DOCA rats. The protocol: Five-week old male Wister rats were uninephrectomized under anesthesia. Deoxycorticosterone acetate (DOCA) (30 mg/kg), suspended in peanut oil, was injected subcutaneously twice a week and 1% saline was substituted for the drinking water. Animals with mean blood pressure 150-200 mmHg were used for experiment between 5 and 7 weeks after surgery.
The test compounds were administered intraperitonealy or orally. Blood pressure was measured at the femoral artery by means of a pressure transducer and recorded as electrically integrated values of mean arterial pressure.

The subject of a further assay is ulcers (stomach). Briefly: Antiulcer activity: inhibition of ulcer area in rats immobilized in water bath. In kind it is in vivo, Sprague-Dawley rats. The note with it: orally, 7 hours. On the procedure: Sprague-Dawley rats weighing about 200 g were used. Each animal was immobilized in a small cage and put in a water bath allowing to respire. The temperature of the water bath kept at 22° C. The test compound was administered orally just before the immobilization. Seven hours later, the animals were sacrificed and their stomachs were removed. The stomach was then fixed with 2% formalin. The area of ulcers was measured for each animal. The mean area (mm^2) in the test animals was compared with that in the control animals and inhibition effect (%) were calculated.

As to `CC1NC(=O)NN=C1c1ccc2c(c1)CCCN2C(=O)C1CC1` (stereo not drawn) [Example 13, 6-(1-cyclopropanecarbonyl-1,2,3,4-tetrahydroquinolin-6-yl)-5-methyl-4,5-dihydro-1,2,4-triazin-3(2H)-one], the IC50 came to 34 nM in assay [1] and 160 nM in assay [2].

As for `CC(=O)N1CCCc2cc(C3=NNC(=O)NC3C)ccc21` (stereo not drawn) [Example 10 - (5), 6-(1-acetyl-1,2,3,4-tetrahydroquinolin-6-yl)-5-methyl-4,5-dihydro-1,2,4-triazin-3(2H)-one], the IC50 in assay [1] came out at 540 nM; in assay [2] it was 1400 nM. Moreover, the “Effect Max (mean ratio of maximum decrease of blood pressure)” value in the assay on blood pressure (1 mg/kg (dose b)) was 40%.

Take `CN1C(=O)Cc2cc(C3=NNC(=O)NC3)ccc21` [Example 9 - (4), 6-(1-Methyl-2-indolinon-5-yl)-4,5-dihydro-1,2,4-triazin-3(2H)-one]: the results for the IC50 in assay [1] and in assay [2] were 2700 nM and 4600 nM, respectively.

With `CC1NC(=O)NN=C1c1ccc2c(c1)NCCC2` (stereo not drawn) [Example 11 - (4), 6-(1,2,3,4-Tetrahydroquinolin-7-yl)-5-methyl-4,5-dihydro-1,2,4-triazin-3(2H)-one], the IC50 in assay [1] is 22000 nM; in assay [2] it was 56000 nM.

With `CC1NC(=O)NN=C1c1ccc2c(c1)CCCN2C` (stereo not drawn) [Example 15, 6-(1-methyl-1,2,3,4-tetrahydroquinolin-6-yl)-5-methyl-4,5-dihydro-1,2,4-triazin-3(2H)-one], the figures for the IC50 in assay [1] and in assay [2] were 2000 nM and 5800 nM, respectively. In addition, in the assay with blood pressure (1 mg/kg (dose b)), the “Effect Max (mean ratio of maximum decrease of blood pressure)” value is recorded as 68%.

For `CC(=O)N1CCCc2ccc(C3=NNC(=O)NC3C)cc21` (stereo not drawn) [Example 11 - (3), 6-(1-Acetyl-1,2,3,4-tetrahydroquinolin-7-yl)-5-methyl-4,5-dihydro-1,2,4-triazin-3(2H)-one], the IC50 in assay [1] was 1900 nM; in assay [2] it was 3700 nM.

Regarding `CC1NC(=O)NN=C1c1ccc2c(c1)CCCN2C(=O)C1CCC1` (stereo not drawn) [Example 14, 6-(1-Cyclobutanecarbonyl-1,2,3,4-tetrahydroquinolin-6-yl)-5-methyl-4,5-dihydro-1,2,4-triazin-3(2H)-one], the IC50 is 81 nM in assay [1] and 250 nM in assay [2].

Turning to `CC1NC(=O)NN=C1c1ccc2c(c1)CCCN2` (stereo not drawn) [Example 10 - (6), 6-(1,2,3,4-tetrahydroquinolin-6-yl)-5-methyl-4,5-dihydro-1,2,4-triazin-3(2H)-one], the IC50 in assay [1] worked out at 470 nM; in assay [2], 1300 nM. For the same compound, the “Effect Max (mean ratio of maximum decrease of blood pressure)” value is reported as 33% in the assay with blood pressure (0.1 mg/kg (dose a)) and 57% in the assay on blood pressure (1 mg/kg (dose b)).

Take `CN1C(=O)CCc2cc(C3=NNC(=O)NC3)ccc21` [Example 8 - (4), 6-(1-methyl-2-oxo-1,2,3,4-tetrahydroquinolin-6-yl)-4,5-dihydro-1,2,4-triazin-3(2H)-one]: the “Effect (inhibition of ulcer area)” value in the assay on ulcers (stomach) (10 mg/kg (dose c)) was determined as 68.0%; in the assay on ulcers (stomach) (32 mg/kg (dose d)), 80.0%. Also, the IC50 in assay [1] was found to be 240 nM; in assay [2] it was 360 nM. In addition, the entries for the “Effect Max (mean ratio of maximum decrease of blood pressure)” value in the assay on blood pressure (0.1 mg/kg (dose a)) and with blood pressure (1 mg/kg (dose b)) were 15% and 49%, respectively.

Regarding `CC1NC(=O)NN=C1c1ccc2c(ccc(=O)n2C)c1` (stereo not drawn) [Example 12 - (3), 6-(1-Methyl-2-oxo-1,2-dihydroquinolin-6-yl)-5-methyl-4,5-dihydro-1,2,4-triazin-3(2H)-one], the IC50 in assay [1] was found to be 48 nM; in assay [2] it was 67 nM. The entries for the “Effect Max (mean ratio of maximum decrease of blood pressure)” value in the assay with blood pressure (0.1 mg/kg (dose a)) and with blood pressure (1 mg/kg (dose b)) were 40% and 58%, respectively.
